Each structure is given as a SMILES string. Values joined by “and” are separate entries in the source; they are usually repeats but may differ in a detail not shown here. Equal values may be shown once. Active and inactive are the calls of the source. No cut-off for these calls is given here.

We go through 21 compounds from ChEMBL document CHEMBL3400128, “Design, synthesis and biological evaluation of functionalized phthalimides: a new class of antimalarials and inhibitors of falcipain-2, a major hemoglobinase of malaria parasite” (Bioorg Med Chem, 2015).

Data set [1] concerns Plasmodium falciparum. The experiment in a line: Antimalarial activity against chloroquine-sensitive Plasmodium falciparum 3D7 infected in human erythrocyte assessed as parasite viability after 48 hrs by [3H]hypoxanthine incorporation based liquid scintillation counting analysis. The data set is classed as functional, organism-based.
Data set [2] deals with Plasmodium falciparum. The experiment in a line: Antimicrobial activity against chloroquine-sensitive Plasmodium falciparum 3D7 infected in human erythrocyte assessed as parasite viability at 6.25 to 25 ng/ml after 42 hrs by [3H]hypoxanthine incorporation based liquid scintillation counting analysis. The data set is classed as functional, organism-based.
Data set [3] concerns the target T1, Falcipain 2 (Plasmodium falciparum) (UniProt Q9N6S8).
T1 sequence (whole entry): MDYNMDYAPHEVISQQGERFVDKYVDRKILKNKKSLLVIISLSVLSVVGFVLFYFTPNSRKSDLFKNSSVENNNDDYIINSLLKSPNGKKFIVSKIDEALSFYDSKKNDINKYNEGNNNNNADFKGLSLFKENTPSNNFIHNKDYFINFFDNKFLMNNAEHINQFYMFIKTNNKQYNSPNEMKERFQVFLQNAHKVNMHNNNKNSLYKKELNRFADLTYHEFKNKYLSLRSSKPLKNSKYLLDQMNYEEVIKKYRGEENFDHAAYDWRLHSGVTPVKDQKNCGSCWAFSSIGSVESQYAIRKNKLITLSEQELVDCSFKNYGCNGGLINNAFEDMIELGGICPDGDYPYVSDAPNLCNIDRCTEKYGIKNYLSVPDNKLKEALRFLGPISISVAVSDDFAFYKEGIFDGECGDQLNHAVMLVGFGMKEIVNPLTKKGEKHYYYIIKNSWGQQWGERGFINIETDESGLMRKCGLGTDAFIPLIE
In words: Inhibition of Plasmodium falciparum Falcipain 2 at 500 nM by hemoglobin hydrolysis assay.

Data set [4] has as its target T1, Falcipain 2 (Plasmodium falciparum). The experiment in a line: Inhibition of Plasmodium falciparum Falcipain 2 using Z-Leu-Arg-AMC substrate assessed as fluorogenic substrate hydrolysis.
Data set [5] has the same target. The experiment in a line: Inhibition of Plasmodium falciparum Falcipain 2 at 5 nM by hemoglobin hydrolysis assay.
For data set [6], the system named is Plasmodium falciparum. The experiment in a line: Antimicrobial activity against blood stage chloroquine-sensitive Plasmodium falciparum 3D7 infected in human erythrocyte assessed as abnormal morphologies at 27.64 uM after 6 hrs by Giemsa staining based light microscopy. The data set is classed as functional, organism-based.
In data set [7] the test system is Plasmodium falciparum. The experiment in a line: Antimicrobial activity against chloroquine-sensitive Plasmodium falciparum 3D7 infected in human erythrocyte assessed as parasite viability after 42 hrs by [3H]hypoxanthine incorporation based liquid scintillation counting analysis in presence of 25 ng/ml. It counts as functional, organism-based.
Data set [8] concerns Plasmodium falciparum. In words: Antimicrobial activity against chloroquine-resistant Plasmodium falciparum 7G8 infected in human erythrocyte assessed as parasite viability after 48 hrs by [3H]hypoxanthine incorporation based liquid scintillation counting analysis. It counts as functional.
The nature of data set [9]: Toxicity in human erythrocytes assessed as hemolytic activity up to 50 ug/ml after 42 hrs by spectrophotometric analysis. The data set is classed as cell-based. Conditions: erythrocyte.
Data set [10] concerns Plasmodium falciparum. In words: Antimicrobial activity against ring stage trophozoite chloroquine-sensitive Plasmodium falciparum 3D7 infected in human erythrocyte assessed as abnormal morphologies at 27.64 uM after 16 hrs by Giemsa staining based light microscopy. It counts as functional, organism-based.
Data set [11] has as its system Plasmodium falciparum. In words: Antimicrobial activity against blood stage chloroquine-sensitive Plasmodium falciparum 3D7 infected in human erythrocyte assessed as abnormal morphologies at 55.28 uM after 6 hrs by Giemsa staining based light microscopy. It counts as functional, organism-based.
Data set [12] concerns Plasmodium falciparum. In words: Antimicrobial activity against blood stage chloroquine-sensitive Plasmodium falciparum 3D7 infected in human erythrocyte assessed as inhibition of invasion event of merozoites after 6 hrs by Giemsa staining based light microscopy. It counts as functional, organism-based.
The test system of data set [13] is Plasmodium falciparum. In words: Antimalarial activity against chloroquine-sensitive Plasmodium falciparum 3D7 infected in human erythrocyte assessed as parasite viability after 90 hrs by [3H]hypoxanthine incorporation based liquid scintillation counting analysis. It counts as functional, organism-based.
The test system of data set [14] is Plasmodium falciparum. In words: Antimicrobial activity against ring stage trophozoite chloroquine-sensitive Plasmodium falciparum 3D7 infected in human erythrocyte assessed as abnormal morphologies at 55.28 uM after 16 hrs by Giemsa staining based light microscopy. It counts as functional, organism-based.
Data set [15] deals with Plasmodium falciparum. The experiment in a line: Antimicrobial activity against chloroquine-sensitive Plasmodium falciparum 3D7 infected in human erythrocyte assessed as parasite viability after 42 hrs by [3H]hypoxanthine incorporation based liquid scintillation counting analysis in presence of 6.25 ng/ml. It counts as functional, organism-based.
Data set [16] has as its system Plasmodium falciparum. In words: Antimicrobial activity against chloroquine-sensitive Plasmodium falciparum 3D7 infected in human erythrocyte assessed as parasite viability after 42 hrs by [3H]hypoxanthine incorporation based liquid scintillation counting analysis in presence of 12.5 ng/ml. The data set is classed as functional, organism-based.
Data set [17] concerns Plasmodium falciparum. The experiment in a line: Antimalarial activity against chloroquine-sensitive Plasmodium falciparum 3D7 infected in human erythrocyte assessed as parasite viability after 60 hrs by [3H]hypoxanthine incorporation based liquid scintillation counting analysis. The data set is classed as functional, organism-based.
In data set [18] the test system is Plasmodium falciparum. The experiment in a line: Antimicrobial activity against blood stage chloroquine-sensitive Plasmodium falciparum 3D7 infected in human erythrocyte assessed as abnormal morphologies at 43.68 uM after 6 hrs by Giemsa staining based light microscopy. It counts as functional, organism-based.
In data set [19] the test system is Plasmodium falciparum. In words: Antimicrobial activity against ring stage trophozoite chloroquine-sensitive Plasmodium falciparum 3D7 infected in human erythrocyte assessed as abnormal morphologies at 43.68 uM after 16 hrs by Giemsa staining based light microscopy. It counts as functional, organism-based.
The subject of data set [20] is Plasmodium falciparum. In words: Antimicrobial activity against blood stage chloroquine-sensitive Plasmodium falciparum 3D7 infected in human erythrocyte assessed as abnormal morphologies at 21.8 uM after 6 hrs by Giemsa staining based light microscopy. The data set is classed as functional, organism-based.
Data set [21] relates to Plasmodium falciparum. In words: Antimicrobial activity against ring stage trophozoite chloroquine-sensitive Plasmodium falciparum 3D7 infected in human erythrocyte assessed as abnormal morphologies at 21.8 uM after 16 hrs by Giemsa staining based light microscopy. It counts as functional, organism-based.

Broadly, the IC50 is the concentration that gives 50% inhibition. For the compound `CC(C)[C@@H](C(=O)N1CCC(Cc2ccccc2)CC1)N1C(=O)c2ccccc2C1=O`, the IC50 in data set [1] is 19.5 µg/mL and 48.2 µM.

For the compound `CC(C)[C@@H](C(=O)N1CCCC1)N1C(=O)c2ccccc2C1=O`, the IC50 in data set [1] was 42.5 µg/mL and 142 µM.

For `C[C@@H]1CC[C@H]2[C@@H](C)C(=O)O[C@@H]3O[C@@]4(C)CC[C@@H]1[C@]32OO4` [ARTEMISININ], the half-inhibitory concentration (IC50) in data set [1] was 0.045 µg/mL and 159 nM. Moreover, the inhibition entry in data set [2] was “inactive”.

In the case of `CC[C@H](C)[C@@H](C(=O)N1CCC(Cc2ccccc2)CC1)N1C(=O)c2ccccc2C1=O`, in data set [1], the 50% inhibitory concentration (IC50) was 22.5 µg/mL and 53.8 µM.

Take `CC(C)[C@@H](C(=O)N1CCN(C(=O)[C@H](C(C)C)N2C(=O)c3ccccc3C2=O)CC1)N1C(=O)c2ccccc2C1=O`: the concentration for half-maximal inhibition (IC50) in data set [1] was 9.2 µg/mL and 16.9 µM.

For the compound `O=C([C@H](Cc1ccccc1)N1C(=O)c2ccccc2C1=O)N1CCCC1`, in [1], the IC50 was 31.5 µg/mL and 87.6 µM. Also, the inhibition result in data set [3], in [4] and in data set [5] was “Active” each time.

As to `O=C([C@H](Cc1ccccc1)N1C(=O)c2ccccc2C1=O)N1CCCCC1`, the IC50 in data set [1] was 13 µg/mL and 36 µM.

As for `CC[C@@H](C)[C@@H](C(=O)N1CCCCC1)N1C(=O)c2ccccc2C1=O`, in data set [1], the IC50 is 35 µg/mL and 107 µM.

Turning to `CC(C)C[C@@H](C(=O)N1CCN(C(=O)[C@H](CC(C)C)N2C(=O)c3ccccc3C2=O)CC1)N1C(=O)c2ccccc2C1=O`, in [1], the IC50 is 61 µg/mL and 203 µM.

In the case of `O=C([C@H](Cc1ccccc1)N1C(=O)c2ccccc2C1=O)N1CCN(C(=O)[C@H](Cc2ccccc2)N2C(=O)c3ccccc3C2=O)CC1`, the IC50 in data set [1] is 33.8 µg/mL and 52.7 µM. Moreover, in data set [4], the inhibition result was “Active”.

Consider `CC(C)C[C@@H](C(=O)N1CCCC1)N1C(=O)c2ccccc2C1=O`, for which, in data set [1], the IC50 was 74.2 µg/mL and 236 µM.

With `CC[C@@H](C)[C@@H](C(=O)N1CCOCC1)N1C(=O)c2ccccc2C1=O`, the 50% inhibitory concentration (IC50) in data set [1] is 20 µg/mL and 60.6 µM.

Take `O=C([C@H](Cc1ccccc1)N1C(=O)c2ccccc2C1=O)N1CCOCC1`: in data set [1], the IC50 is 18 µg/mL and 49.4 µM. The inhibition entry in data set [3], in data set [4] and in [5] was “Active” each time.

On to `CC(C)[C@@H](C(=O)N1CCOCC1)N1C(=O)c2ccccc2C1=O`, for which, in data set [1], the IC50 is 65 µg/mL and 206 µM.

As to `CC(C)C[C@@H](C(=O)N1CCC(Cc2ccccc2)CC1)N1C(=O)c2ccccc2C1=O`, in data set [1], the 50% inhibitory concentration (IC50) is 18.5 µg/mL and 44.2 µM.

`CC(C)C[C@@H](C(=O)N1CCCCC1)N1C(=O)c2ccccc2C1=O`: the IC50 in [1] is 71.5 µg/mL and 218 µM.

With `CC[C@@H](C)[C@@H](C(=O)N1CCN(C(=O)[C@H]([C@H](C)CC)N2C(=O)c3ccccc3C2=O)CC1)N1C(=O)c2ccccc2C1=O`, the outcome in data set [6], in data set [10], in [11] and in data set [14] was Active. The IC50 in [1] is 3.42 µg/mL and 5.97 µM; in data set [7], 1390 nM; in [8], 7210 nM; in data set [13], 1100 nM; in data set [15] it was 2440 nM; in [16] it was 1920 nM. Also, the 50% inhibitory concentration (IC50) in data set [17] turned out to be 2000 nM. Also, the Activity entry in data set [9] is “Non-toxic”. Besides, in [12], the inhibition result is “Dose-dependent effect”.

For the compound `CC(C)C[C@@H](C(=O)N1CCOCC1)N1C(=O)c2ccccc2C1=O`, the half-maximal inhibitory concentration (IC50) in [1] is 46 µg/mL and 139 µM.

Consider `O=C([C@H](Cc1ccccc1)N1C(=O)c2ccccc2C1=O)N1CCC(Cc2ccccc2)CC1`, for which the IC50 was 5.5 µg/mL and 12.2 µM in [1]; 13300 nM in data set [8]; 3800 nM in data set [13]; 5000 nM in [17]. The result in data set [18], in data set [19], in [20] and in data set [21] was Active. For the same compound, in [9], the Activity result is “Non-toxic”. Further, the inhibition result in data set [12] is “Dose-dependent effect”.

`CC[C@@H](C)[C@@H](C(=O)N1CCCC1)N1C(=O)c2ccccc2C1=O`: the half-maximal inhibitory concentration (IC50) in [1] was 46 µg/mL and 146 µM.

Consider `CC(C)[C@@H](C(=O)N1CCCCC1)N1C(=O)c2ccccc2C1=O`, for which, in [1], the half-maximal inhibitory concentration (IC50) is 41 µg/mL and 130 µM.
